Measured values published in US5556872A, “Histamine derivatives useful as immunomodulators” (The Board of Trustees of the Leland Stanford Junior …, priority 1995, dated 1996).

Legend:
[1] = system: phytohemagglutinin-induced Th proliferation; conditions: pretreatment of human Ts cells with histamine; mediated via H2 receptors; cited from earlier work
[2] = system: murine NS cells; conditions: in vitro; cited from earlier work
[3] = system: human Ts cells; conditions: Khan et al. 1985, Sansoni et al. 1985; cited from earlier work
[4] = system: pokeweed mitogen-induced B cell differentiation; conditions: pretreatment of human Ts cells with histamine; mediated via H2 receptors; cited from earlier work
[5] = system: Hx; experiment: Dominant interactions of congeners with histamine receptors: Hx; assay type: binding, Human
[6] = system: H3; experiment: Dominant interactions of congeners with histamine receptors: H3; assay type: binding; conditions: Human lymphocytes, monocytes and neutrophils
[7] = system: IgG antibody response to horse myoglobin (h-Mb); experiment: Inhibition of IgG and IgG subclass antibody response to horse myoglobin in immunized mice (anti-horse myoglobin ELISA); assay type: in vivo, DBA/2 mice; conditions: vs saline control mice
Experimental: ELISA plates were coated with 10 ug/ml commercially available horse myoglobin (h-Mb) in PBS 50 ul/well overnight at 4 deg C. The plates were washed with PBS once. The plates were then coated with 50 ul BBA (1 mg/ml) and washed with PBS once. The plates were then coated with test serum diluted in PBS-Tween, 50 ul/well and incubated at 4 deg C. overnight. The plates were then washed with PBS-Tween three times. Anti-IgG (1:2000) was added and diluted with PBS-Tween. For the IgG antibody subclasses, anti-IgG1, anti-IgG2a, anti-IgG2b was diluted and added to selected wells. Incubation was at 4 deg C. for two hours. Washing was with PBS-Tween 2 times with 5 minutes between each wash. A 1 mg/ml OPD in citrate buffer solution pH5 was prepared and 10 ul of H2O2/10 ml was added to the buffer solution. 50 ul of buffer was added to each well and the plates were placed in the dark for about 10 minutes. The reaction was stopped with 50 ul of 5N H2SO4 in each well. The plates were then read on an Elisa reader.
The following immunization protocol was repeated several times. The results have been collected in FIGS. 1a-d.
This experiment was done using two groups of 2-6 DBA/2 mice (average weight 22 grams). One group of mice were given one treatment of compound 3 intravenously one day before antigen treatment (day-1) and two days following antigen treatment (day+2). The dose of compound 3 was approximately 36 mg/kg in 100 ul of PBS. The other group of mice was given a saline control in 100 ul PBS. On day 0 the two groups of mice were injected with 100 ug h-Mb in 100 ul CFA intravenously (i.v.). The mice were then boosted fourteen days later with 100 ug of h-Mb in 100 ul IFA. The mice were bled 30 days later.

[8] = target: H1 (Homo sapiens, UniProt P35367); experiment: Dominant interactions of congeners with histamine receptors: H1; assay type: binding
Chain of H1 (P35367 whole entry): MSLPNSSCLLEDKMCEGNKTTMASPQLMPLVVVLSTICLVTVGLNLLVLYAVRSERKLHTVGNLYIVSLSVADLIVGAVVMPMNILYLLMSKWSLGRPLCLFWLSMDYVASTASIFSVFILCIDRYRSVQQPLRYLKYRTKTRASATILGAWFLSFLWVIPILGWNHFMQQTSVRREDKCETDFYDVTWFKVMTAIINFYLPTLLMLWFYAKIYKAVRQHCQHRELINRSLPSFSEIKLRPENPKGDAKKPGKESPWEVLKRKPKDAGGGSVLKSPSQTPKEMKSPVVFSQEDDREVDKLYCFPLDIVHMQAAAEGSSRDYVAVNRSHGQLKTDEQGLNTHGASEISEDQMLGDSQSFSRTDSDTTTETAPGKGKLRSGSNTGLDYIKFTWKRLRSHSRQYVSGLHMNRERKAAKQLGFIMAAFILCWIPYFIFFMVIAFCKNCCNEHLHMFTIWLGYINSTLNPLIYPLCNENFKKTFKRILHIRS

[9] = target: H2 (Homo sapiens, UniProt P25021); experiment: Dominant interactions of congeners with histamine receptors: H2; assay type: binding
Chain of H2 (P25021 whole entry): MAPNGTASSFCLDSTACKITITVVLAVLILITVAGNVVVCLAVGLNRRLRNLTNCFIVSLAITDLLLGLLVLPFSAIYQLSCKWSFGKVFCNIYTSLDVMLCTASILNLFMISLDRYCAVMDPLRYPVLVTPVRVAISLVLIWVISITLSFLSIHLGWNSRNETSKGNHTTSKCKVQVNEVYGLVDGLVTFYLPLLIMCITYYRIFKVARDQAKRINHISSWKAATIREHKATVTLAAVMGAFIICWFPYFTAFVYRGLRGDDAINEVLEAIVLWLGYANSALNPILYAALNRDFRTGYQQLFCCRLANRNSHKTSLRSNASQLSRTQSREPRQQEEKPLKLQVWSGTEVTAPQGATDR

[10] = comparable experiment using Compound 1, FIG. 3
[11] = compound 3 approx. 36 mg/kg i.v. day -1 and day +2, FIG. 1

In the case of `NCCc1c[nH]cn1` [Histamine], the “phytohemagglutinin-induced Th proliferation” value [1] is listed as “inhibited”, the “effect on suppressive ability of murine NS cells” value [2] is listed as “enhances the suppressive ability of murine NS cells in vitro” and the “effect on human Ts cells” value [3] is listed as “activates human Ts cells”. For the same compound, the “pokeweed mitogen-induced B cell differentiation” value [4] was “inhibited” and the Hx dominant interaction ([5]; Human lymphocytes, monocytes and neutrophils) was “AntiHx”.
For `CC(CCCCC(=O)Nc1ccc(C(F)(F)F)cc1)NCCc1c[nH]cn1` (stereo not shown) [Compound 1, His--NH--CHCH3--(CH2)4 CONH--phi--CF3], the H3 dominant interaction [6] was “AntiHx”, the IgG1 response [7, 10] was “lower” and the IgG2a response [7, 10] was “lower”. The IgG response [7, 10] was “lower”.
With `O=C(CCCCCNCCc1c[nH]cn1)Nc1ccc(C(F)(F)F)cc1` [Compound 3, His--NH--(CH2)5 CONH--phi--CF3] the IgG1 response [7, 11] was “lower”, the IgG2a response [7, 11] was “lower” and the IgG2b response [7, 11] was “lower”. The “total IgG response to h-Mb” value [7, 11] was “much lower”, the “H1 receptor activity (in words)” value [8] was “not H1 receptor activity” and the “H2 receptor activity (in words)” value [9] was “has been shown to have H2 receptor activity”. The “Hx activity (in words)” value [5] was “some Hx activity”.
